TGI and GI50 data for 35 molecules are collected here from PubChem BioAssay (NCI).

Test in all cases: growth of human tumour cells (NCI), 48 h
Assay [1] concerns ACHN renal.
For assay [2], the system named is HCT-15 colon.
Assay [3] deals with NCI-H226 lung.
The test system of assay [4] is RXF 393 renal.
The subject of assay [5] is SF-268 CNS.
In assay [6] the test system is SR leukemia.
In assay [7] the test system is UO-31 renal.
The subject of assay [8] is MDA-MB-435.
Assay [9] has as its system MDA-MB-231 breast.
Assay [10] relates to BT-549 breast.

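Where inhibition never reached the appropriate level, the endpoint shown equals the highest concentration tested. Otherwise, values were interpolated linearly from a five-concentration, 48-hour dose response in 96-well plates. Abbreviation: GI50, concentration required for 50% inhibition of growth. At the TGI there is no net growth.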 Where only a bound is given, the exact number is not on record here.

Take `O=c1c(-c2ccccc2)c2oc(c1-c1ccccc1)CS(=O)(=O)CCC2`: the TGI is over 100 µM in [1]; 32.9 µM in assay [2]; 80.9 µM in assay [3]; 29.5 µM in assay [4]; 83.3 µM in assay [5]; over 100 µM in [6].
`COc1ccc(/C=N/N=C(\N)NO)c(Cl)c1O`: the TGI in [1] was over 100 µM; in assay [2] it was over 100 µM; in [3], 38.6 µM; in [4], over 100 µM; in assay [5], over 100 µM; in assay [7], 54.1 µM.
Consider `N.N.N.N.O=NN1CCCCCC1(P(=O)([O-])[O-])P(=O)([O-])[O-].[Pt+4].[Pt+4]`, for which the GI50 in assay [1], in assay [2], in assay [3], in [4], in assay [5] and in assay [7] was over 100 µM each time. Further, the TGI in assay [1], in assay [2], in assay [3], in assay [4], in assay [5] and in assay [7] was over 100 µM in each case.
As for `COC(=O)NC1(NC(=O)OC)NC(=O)c2cc(OC)c(OC)cc2N1`, the TGI in [1] was over 100 µM; in [2] it was over 100 µM; in assay [8] it was 13.7 µM; in assay [5], over 100 µM; in assay [6] it was over 100 µM; in [7], over 100 µM.
Turning to `CCOC(=O)C1(C#N)C(c2ccccc2)CC(O)(c2ccc([N+](=O)[O-])cc2)C(C(=O)c2ccc([N+](=O)[O-])cc2)C1c1ccccc1` (centres undefined), the TGI in assay [1] was over 100 µM; in assay [2], over 100 µM; in assay [3], over 100 µM; in [4], 42.6 µM; in [5], over 100 µM; in assay [6], over 100 µM. In [7], this molecule registered a TGI of over 100 µM.
For the molecule `CC(C)N(C(=O)C1(C)CC1)C(C)C`, the TGI in [1], in assay [2], in assay [3], in assay [4], in [5] and in [7] was over 100 µM throughout.
On to `CC(=O)[O-].CC(=O)[O-].O=C(N/N=C/c1cc(Cl)cc(Cl)c1O)c1ccncc1.[Ni+2]`, for which the TGI in [1], in assay [2], in assay [3], in assay [4], in [5] and in assay [6] was over 100 µM throughout. This molecule also displayed a TGI in [7] of over 100 µM.
As for `Cc1ccc(-n2c3nc(=O)n(C)c(=O)c-3nc3ccccc32)cc1`, the TGI in [1] is 49.2 µM; in assay [2], 23.7 µM; in assay [3], 68.7 µM; in assay [4], over 100 µM; in assay [5] it was over 100 µM; in assay [7], over 100 µM.
As to `CCC(=O)C1(c2ccccc2)CCN(C)CC1`, the TGI in assay [1], in assay [2], in assay [4], in assay [5], in assay [6] and in assay [7] was over 100 µM each time.
For the molecule `CCOC(CCCNCCCn1c2c(c3cc(OC)c(OC)cc3c1=O)C(=O)c1cc3c(cc1-2)OCO3)OCC`, the GI50 was 1.28 µM in assay [1]; 6.1 µM in [2]; 2.65 µM in [9]; 7.32 µM in assay [8]; 3.43 µM in [3]; 4.45 µM in assay [4]. The GI50 in [5] is 2.97 µM; in assay [7], 5.82 µM. The TGI in assay [1] worked out at 7.66 µM; in assay [2], 12.3 µM; in assay [9], 10.1 µM; in assay [8], 13.9 µM; in assay [3], 10.7 µM; in assay [4], 10.7 µM. Further, the TGI in assay [5] was 10.4 µM; in assay [7] it was 11.9 µM.
Consider `O=C1OC(c2ccccc2)=N/C1=C\c1ccc2ccccc2c1`, for which the TGI in assay [1], in assay [2], in [4], in assay [5] and in assay [7] was over 100 µM throughout.
Regarding `CCCCCCCCCCCCCCCCOCC(CN(C)CCN(C)C)OCCCCCCCCCCCCCCCC` (centres undefined), the TGI in [1], in assay [2], in assay [3], in assay [4], in assay [5] and in assay [6] was over 100 µM each time. For the same molecule, in assay [7], the TGI is over 100 µM.
Take `O=c1cc(-c2ccccc2)oc2cc(OCC(O)COc3ccc4c(=O)cc(-c5ccccc5)oc4c3)ccc12`: the TGI in assay [2] is over 100 µM; in assay [5], 90.3 µM; in assay [7] it was over 100 µM.
In the case of `N#CC(/C(=N\NC(=O)c1ccncc1)C(=O)Nc1ccc([N+](=O)[O-])cc1[N+](=O)[O-])c1nc(-c2ccc(Br)cc2)cs1` (centres undefined), the TGI in assay [1], in [2], in [5] and in assay [7] was over 100 µM in each case.
Turning to `C=CCCCn1ccc2ccccc21`, the TGI in assay [1], in assay [2], in [3], in assay [4], in [5] and in [6] was over 100 µM in each case. For the same molecule, in assay [7], the TGI was over 100 µM.
In the case of `Nc1nc(Cl)cc(NCCCCCNc2cc(Cl)nc(N)n2)n1`, the TGI is 52.2 µM in [1]; over 100 µM in assay [2]; over 100 µM in assay [3]; over 100 µM in assay [4]; over 100 µM in [5]; over 100 µM in assay [6]. This molecule had a TGI in assay [7] of over 100 µM.
`COc1cc(OC)c2ssc3c(OC)cc(OC)c4ssc1c2-c43`: the TGI in assay [1], in [2], in assay [3], in assay [4] and in assay [5] was over 100 µM each time.
`CCOC(=O)C[C@@H](C)[C@]1(C(=O)OC)CCCC1=O`: the TGI in assay [1] is over 100 µM; in assay [2], over 100 µM; in [3] it was over 100 µM; in assay [4], over 100 µM; in assay [5] it was over 100 µM; in [6], 65.6 µM. Further, in assay [7], the TGI is over 100 µM.
Consider `CC1=C(C(=O)Nc2ccccc2)C(c2ccc([N+](=O)[O-])cc2)C(C(=O)Nc2ccccc2)=C(C)N1`, for which the TGI in [1] was over 100 µM; in [2] it was 50.9 µM; in assay [3], over 100 µM; in assay [4], 46.2 µM; in assay [5], 57.9 µM; in [6], 45.7 µM. This molecule also had a TGI in assay [7] of over 100 µM.
Consider `COc1cc(Br)c(CC2(C#N)c3ccccc3C3C(N2C(=O)c2ccccc2)C3(Cl)Cl)cc1OC` (centres undefined), for which the TGI in [1], in assay [2], in assay [3], in assay [4], in [5] and in assay [6] was over 65.5 µM throughout. Moreover, the TGI in assay [7] is over 65.5 µM.
Take `CCOC(=O)Cc1nc2ccccc2s1`: the TGI in [1] came to 32.1 µM; in assay [3], 49.2 µM; in [4], 35.3 µM; in assay [5], 39.2 µM; in assay [6] it was 48.9 µM; in [7], 29.7 µM.
For `COc1cccc(NC(=O)C(C)(C)C)c1C=O`, the TGI was over 100 µM in [1]; over 100 µM in assay [2]; over 100 µM in [3]; over 100 µM in assay [5]; over 100 µM in assay [6]; 77.3 µM in assay [7].
For `C[N+](C)(C)CC(=O)N/N=C(\CCC(=O)NCCc1ccccc1)CC(=O)c1ccccc1`, the TGI in [1], in assay [2], in assay [3], in assay [5] and in assay [7] was over 100 µM each time.
As for `CN(C)c1ncnc2c1Cc1ccccc1C(=O)N2C`, the TGI in [1], in assay [3], in assay [4], in assay [5], in assay [6] and in [7] was over 100 µM each time.
For `CC(/C=C/C(=O)c1sc(-n2nc(-c3ccccc3)cc2-c2ccccc2)nc1C)=C\c1ccccc1`, the TGI in [1] was over 100 µM; in [2], 57.6 µM; in assay [3], over 100 µM; in [4], over 100 µM; in assay [5], over 100 µM; in assay [6], over 100 µM. The molecule also came in with a TGI in [7] of over 100 µM. Also, the GI50 in assay [3] and in assay [4] was over 100 µM in each case.
For `CCSC(SCC)c1cc2c(cc1Br)OCO2`, the TGI was over 100 µM in assay [1]; over 100 µM in assay [2]; 81.1 µM in assay [3]; 89.3 µM in assay [4]; over 100 µM in assay [5]; 85.3 µM in assay [7].
Turning to `CC1CN(c2ccc(Cl)cc2)CC(C)(C)OC(=O)O1` (centres undefined), the TGI in assay [1], in assay [2], in assay [3], in assay [4], in assay [5] and in assay [6] was over 100 µM in each case. The TGI in [7] is over 100 µM.
Take `O=C1Nc2cc(Cl)ccc2N=CC1NC(=O)C(c1ccccc1)c1ccccc1Cl` (centres undefined): the TGI in assay [1], in assay [2], in [3], in assay [4], in assay [5] and in assay [7] was over 100 µM throughout.
Regarding `COCc1c(CO)cnc(C)c1OC1OC(CO)C(O)C(O)C1O` (centres undefined), the TGI in assay [1], in [2], in [3], in [4], in assay [5] and in assay [6] was over 100 µM throughout. The molecule further showed a TGI in assay [7] of over 100 µM.
With `O=C(/C=C/c1ccc(O)c(O)c1)OC1C[C@@](O)(C(=O)O)C[C@@H](O)[C@H]1OC(=O)/C=C/c1ccc(O)c(O)c1` (some centres undefined), the TGI in assay [1], in assay [2], in [3], in assay [4], in assay [5] and in assay [6] was over 100 µM in each case. The molecule also displayed a TGI in [7] of over 100 µM.
Take `O=C(NCCc1ccccc1)C(c1ccccc1)(c1ccccc1)c1ccccc1`: the GI50 in assay [1] was 3.13 µM; in [10], 5.99 µM; in [2], 5.91 µM; in assay [9], 0.519 µM; in assay [8] it was 12.2 µM; in assay [5], 30 µM. The GI50 in assay [7] was 6.32 µM. Besides, the TGI was 9.35 µM in [1]; 44.9 µM in assay [10]; over 100 µM in assay [2]; 4.21 µM in [9]; 45.8 µM in assay [8]; over 100 µM in assay [5]. In assay [7], this molecule showed a TGI of 43.4 µM.
With `CCOc1cc2ccc3c4cc(OC)c(OC)cc4cnc3c2cc1OCC`, the TGI in assay [1], in assay [2], in [5] and in [7] was over 100 µM throughout.
With `O=C(O)C1=C(C(=O)Nc2ccccc2)C2C=CC1C2` (centres undefined), the TGI in assay [1], in [2], in [4], in [5], in assay [6] and in assay [7] was over 100 µM throughout.
Take `CC(C)C1C(=O)NC(CO)Cc2c[nH]c3c(C(c4c[nH]c5ccccc45)C(O)CO)ccc(c23)N1C` (centres undefined): the TGI in assay [1], in assay [4], in assay [5], in [6] and in assay [7] was over 100 µM throughout.
With `COc1ccc2c(c1O)C(=O)C(CCC(=O)O)CC2` (centres undefined), the TGI in assay [1], in [2] and in assay [4] was over 100 µM throughout.
